Read-outs that look alike come from different tables or passages of the source.
Assays:
[1] = molecular target: T1, TRKA (Homo sapiens (Human), UniProt P04629); experiment: Isolated TRK enzyme assay (HTRF KinEASE-TK), TRKA; assay type: biochemical; conditions: isolated TRKA enzyme; read-out: TrkA enzyme potency
Target sequence in this assay (P04629 441-796): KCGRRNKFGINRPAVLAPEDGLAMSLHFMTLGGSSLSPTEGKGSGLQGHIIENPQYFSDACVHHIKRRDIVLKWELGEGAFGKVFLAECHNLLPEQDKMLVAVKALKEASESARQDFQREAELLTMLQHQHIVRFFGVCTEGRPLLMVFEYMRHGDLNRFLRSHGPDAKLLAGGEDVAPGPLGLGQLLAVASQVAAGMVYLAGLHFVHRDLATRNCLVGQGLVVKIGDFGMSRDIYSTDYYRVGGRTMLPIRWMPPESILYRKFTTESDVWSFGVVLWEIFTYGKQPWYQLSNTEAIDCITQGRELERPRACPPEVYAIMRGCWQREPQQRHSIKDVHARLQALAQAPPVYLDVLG

[2] = molecular target: T2, TRKB (Homo sapiens (Human), UniProt Q16620); experiment: biochemical
[3] = molecular target: T1, TRKA; experiment: Cell based DiscoveRx PathHunter antagonist assay, TRKA cell line; conditions: read-out: TrkA cell potency
Procedure: (§1) After the Detection Reagent addition, plates are covered and incubated at room temperature for 60 minutes. […] Test compound data are expressed as percentage inhibition defined by HPE and ZPE values for each plate. Percentage inhibition in the presence of test compound is plotted against compound concentration on a log scale to determine an IC50 from the resultant sigmoid curve. Cell Based Assays were carried out using Cell lines from DiscoveRx utilising their PathHunter technology and reagents in an antagonist assay:
(§2) The assays are based upon DiscoveRx's proprietary Enzyme Fragment Complementation (EFC) technology. In the case of the TRK cell lines, the enzyme acceptor (EA) protein is fused to a SH2 protein and the TRK receptor of interest has been tagged with a Prolink tag.
(§3) Upon neurotrophin binding, the TRK receptor becomes phosphorylated, and the tagged SH2 protein binds.
(§4) This means that the IC50 is a good measure of affinity and should be unaffected by concentration neurotrophin stimulant.
(§5) Cryopreserved PathHunter cells are used from either in-house produced batches or bulk batches bought directly from DiscoveRx. Cryopreserved cells are resuscitated, spun 1000 rpm for 4 min to remove freezing media, and resuspended in MEM+0.5% horse serum (both Invitrogen) to 5e^5 cells/ml. The cells are then plated using a Multidrop into Greiner white tissue culture treated plates at 20 ul/well and incubated for 24 h at 37° C., 5% CO2, high humidity. On the day of the assay, the cell plates are allowed to cool to room temperature for 30 min prior to the assay.
(§6) Plates containing 1 ul of serially diluted compound, standard and HPE/ZPE are diluted 1/66 in assay buffer (PBS minus Ca^2+, minus Mg^2+ with 0.05% pluronic F127) using a Wellmate. […] The plates are left at room temperature for a further 2 hours before addition of 10 ul of the DiscoveRx PathHunter detection reagent (made up by adding 1 part Galacton Star, 5 parts Emerald II and 19 parts Cell Assay Buffer as per the manufacturer's instructions).
(§7) After reagent addition, plates are covered and incubated at room temperature for 60 minutes. Luminescence signal is read using an Envision. Test compound data are expressed as percentage inhibition defined by HPE and ZPE values for each plate. Percentage inhibition in the presence of test compound is plotted against compound concentration on a log scale to determine an […] from the resultant sigmoid curve.
Target sequence in this assay (P04629 33-796): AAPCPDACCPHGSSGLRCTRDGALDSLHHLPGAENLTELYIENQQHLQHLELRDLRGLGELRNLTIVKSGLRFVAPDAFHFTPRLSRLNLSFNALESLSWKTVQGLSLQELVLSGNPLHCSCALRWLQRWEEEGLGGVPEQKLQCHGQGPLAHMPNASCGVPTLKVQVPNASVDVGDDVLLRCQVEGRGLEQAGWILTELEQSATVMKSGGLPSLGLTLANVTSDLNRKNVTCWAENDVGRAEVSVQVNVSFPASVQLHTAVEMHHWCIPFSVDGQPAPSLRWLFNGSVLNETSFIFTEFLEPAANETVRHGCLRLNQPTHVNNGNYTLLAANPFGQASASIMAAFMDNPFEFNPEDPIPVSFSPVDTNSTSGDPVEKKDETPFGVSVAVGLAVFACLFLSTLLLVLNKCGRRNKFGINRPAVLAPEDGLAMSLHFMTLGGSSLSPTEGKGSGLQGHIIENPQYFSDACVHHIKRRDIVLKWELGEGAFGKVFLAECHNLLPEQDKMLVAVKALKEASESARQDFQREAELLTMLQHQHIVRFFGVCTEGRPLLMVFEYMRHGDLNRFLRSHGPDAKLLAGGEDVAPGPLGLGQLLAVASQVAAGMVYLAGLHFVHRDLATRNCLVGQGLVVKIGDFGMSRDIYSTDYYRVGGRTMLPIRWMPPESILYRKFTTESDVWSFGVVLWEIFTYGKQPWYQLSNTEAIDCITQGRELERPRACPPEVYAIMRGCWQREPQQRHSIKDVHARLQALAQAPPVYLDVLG

[4] = molecular target: T2, TRKB; experiment: cell-based; conditions: TrkB cell potency, TRKB PathHunter cell line
Procedure: as §1, §2, §3, §4, §5, §6, §7

[5] = molecular target: TRKC (Homo sapiens (Human), UniProt Q16288); experiment: Cell based DiscoveRx PathHunter antagonist assay, TRKC cell line; conditions: read-out: TrkC cell potency
Sequence of TRKC (Q16288 32-839): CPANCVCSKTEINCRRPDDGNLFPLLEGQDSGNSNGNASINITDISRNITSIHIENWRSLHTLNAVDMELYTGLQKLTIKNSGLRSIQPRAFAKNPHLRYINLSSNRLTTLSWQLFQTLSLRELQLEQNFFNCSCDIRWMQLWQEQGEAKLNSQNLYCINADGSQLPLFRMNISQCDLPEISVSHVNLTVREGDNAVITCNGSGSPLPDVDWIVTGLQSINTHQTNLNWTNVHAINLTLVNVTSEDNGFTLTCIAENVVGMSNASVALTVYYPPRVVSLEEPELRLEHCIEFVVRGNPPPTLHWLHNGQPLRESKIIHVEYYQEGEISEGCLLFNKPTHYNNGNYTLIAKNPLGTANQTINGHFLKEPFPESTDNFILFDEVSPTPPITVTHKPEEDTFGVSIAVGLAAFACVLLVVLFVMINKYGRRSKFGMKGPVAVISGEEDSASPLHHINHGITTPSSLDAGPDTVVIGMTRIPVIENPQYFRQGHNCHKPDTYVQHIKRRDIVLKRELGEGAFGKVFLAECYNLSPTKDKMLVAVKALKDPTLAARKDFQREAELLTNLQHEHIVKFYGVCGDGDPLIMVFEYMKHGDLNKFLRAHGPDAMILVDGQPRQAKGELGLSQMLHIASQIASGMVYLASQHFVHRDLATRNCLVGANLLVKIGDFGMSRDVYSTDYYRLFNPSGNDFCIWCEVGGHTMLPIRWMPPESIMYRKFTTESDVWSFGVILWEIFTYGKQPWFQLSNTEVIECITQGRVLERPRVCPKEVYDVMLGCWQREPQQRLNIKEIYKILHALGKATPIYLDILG
Procedure: as §1, §2, §3, §4, §5, §6, §7

[6] = molecular target: MDR1 (Homo sapiens (Human), UniProt P08183); experiment: MDCK-MDR1 assay (in vitro brain penetration); assay type: in vitro ADME; conditions: for Papp B→A / Papp A→B: human; for Papp B→A: read-out: MDCK MDR1 Papp BA; for Papp A→B / MDCK MDR1 Papp AB: MDCK-MDR1, A to B; for Papp A→B: read-out: MDCK MDR1 Papp AB
Sequence of MDR1 (P08183 whole entry): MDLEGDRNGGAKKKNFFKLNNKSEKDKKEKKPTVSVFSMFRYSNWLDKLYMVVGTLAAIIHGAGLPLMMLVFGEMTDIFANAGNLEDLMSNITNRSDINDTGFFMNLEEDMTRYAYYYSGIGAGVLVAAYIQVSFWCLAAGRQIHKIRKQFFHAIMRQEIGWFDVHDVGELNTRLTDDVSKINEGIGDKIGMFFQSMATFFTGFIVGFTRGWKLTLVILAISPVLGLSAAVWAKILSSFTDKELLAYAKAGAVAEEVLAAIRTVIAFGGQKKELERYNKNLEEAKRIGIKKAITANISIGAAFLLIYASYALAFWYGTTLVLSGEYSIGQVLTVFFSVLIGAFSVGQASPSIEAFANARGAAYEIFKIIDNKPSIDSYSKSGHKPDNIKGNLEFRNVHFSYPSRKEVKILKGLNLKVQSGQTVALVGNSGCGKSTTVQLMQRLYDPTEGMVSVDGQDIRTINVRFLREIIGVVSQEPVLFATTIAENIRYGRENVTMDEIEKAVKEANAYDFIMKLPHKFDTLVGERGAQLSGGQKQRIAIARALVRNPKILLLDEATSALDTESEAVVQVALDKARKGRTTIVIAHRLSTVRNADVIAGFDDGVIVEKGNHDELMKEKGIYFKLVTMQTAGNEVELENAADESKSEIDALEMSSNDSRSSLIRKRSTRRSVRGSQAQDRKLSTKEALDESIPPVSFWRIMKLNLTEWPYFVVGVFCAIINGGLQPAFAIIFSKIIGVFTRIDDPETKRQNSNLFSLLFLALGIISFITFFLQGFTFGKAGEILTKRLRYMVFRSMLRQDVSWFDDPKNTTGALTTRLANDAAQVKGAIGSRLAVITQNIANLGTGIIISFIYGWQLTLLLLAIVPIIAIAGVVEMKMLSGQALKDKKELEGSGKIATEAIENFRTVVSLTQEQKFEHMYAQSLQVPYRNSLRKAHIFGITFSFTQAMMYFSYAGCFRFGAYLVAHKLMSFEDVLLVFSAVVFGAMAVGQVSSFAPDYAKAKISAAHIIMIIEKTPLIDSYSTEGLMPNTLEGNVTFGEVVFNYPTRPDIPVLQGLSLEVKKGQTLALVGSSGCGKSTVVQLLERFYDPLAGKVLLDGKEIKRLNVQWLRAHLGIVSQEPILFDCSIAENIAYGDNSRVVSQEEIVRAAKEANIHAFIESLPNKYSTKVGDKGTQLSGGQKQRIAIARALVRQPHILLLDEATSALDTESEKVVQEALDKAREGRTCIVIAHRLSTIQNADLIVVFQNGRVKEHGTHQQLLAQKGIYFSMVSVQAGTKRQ
From the text: MDCK-MDR1: MDCK-MDR1 data were collected according to the method described in “Are MDCK Cells Transfected with the Human MDR1 Gene a Good Model of the Human Intestinal Mucosa?”
http://www.springerlink.com/content/qfhqlqbr4fnp3 khf/fulltext.pdf

[7] = isolated TRKB enzyme, read-out: TrkB enzyme potency

T2 sequence (Q16620 32-822 limits assumed): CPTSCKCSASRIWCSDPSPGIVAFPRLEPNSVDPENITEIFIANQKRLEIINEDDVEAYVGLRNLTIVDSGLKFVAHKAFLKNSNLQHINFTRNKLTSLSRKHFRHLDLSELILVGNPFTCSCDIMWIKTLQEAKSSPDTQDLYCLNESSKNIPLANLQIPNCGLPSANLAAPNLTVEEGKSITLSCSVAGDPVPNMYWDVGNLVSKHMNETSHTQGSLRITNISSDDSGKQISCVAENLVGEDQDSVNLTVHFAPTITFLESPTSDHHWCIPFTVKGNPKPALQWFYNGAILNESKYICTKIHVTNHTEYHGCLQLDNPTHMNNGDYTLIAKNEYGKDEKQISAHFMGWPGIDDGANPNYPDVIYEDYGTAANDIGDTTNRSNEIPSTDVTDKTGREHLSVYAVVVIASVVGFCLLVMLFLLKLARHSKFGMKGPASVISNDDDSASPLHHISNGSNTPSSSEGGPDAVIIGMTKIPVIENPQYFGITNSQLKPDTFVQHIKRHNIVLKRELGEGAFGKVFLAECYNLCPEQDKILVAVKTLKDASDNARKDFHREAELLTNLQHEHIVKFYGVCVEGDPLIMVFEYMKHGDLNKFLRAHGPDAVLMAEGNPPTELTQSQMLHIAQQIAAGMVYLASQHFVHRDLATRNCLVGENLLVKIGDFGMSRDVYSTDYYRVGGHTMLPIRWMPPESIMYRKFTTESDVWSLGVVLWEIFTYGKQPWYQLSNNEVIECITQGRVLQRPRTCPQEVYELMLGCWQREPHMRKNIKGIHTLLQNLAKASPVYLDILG

SMILES	IC50 [1] [nM]	IC50 [2, 7] [nM]	IC50 [3] [nM]	IC50 [4] [nM]	IC50 [5] [nM]	Papp B→A ([6]; MDCK-MDR1, MDCK-MDR1, B to A) [×10⁻⁶ cm/s]	Papp A→B [6] [×10⁻⁶ cm/s]	MDCK MDR1 Papp AB [6] [×10⁻⁶ cm/s]	MDCK MDR1 Papp BA ([6]; MDCK-MDR1, B to A) [×10⁻⁶ cm/s]	IC50 ([2]; TrkB enzyme potency) [nM]	Papp B→A ([6]; MDCK-MDR1, B to A) [×10⁻⁶ cm/s]
CC(C)(C)n1cc(C(=O)c2cncc(NC(=O)Cn3cc(C(F)(F)F)nn3)c2)c2cncnc21 [Example 2, N-{5-[(7-tert-butyl-7H-pyrrolo[2,3-d]pyrimidin-5-yl)carbonyl]pyridin-3-yl}-2-[4-(trifluoromethyl)-1H-1,2,3-triazol-1-yl]acetamide]	8.4		5.3	3.9	1.1		< 1			113	15
CC(C)(C)n1cc(C(=O)c2cncc(NC(=O)Cn3ccc(C(F)(F)F)n3)c2)c2cncnc21 [Example 5, N-{5-[(7-tert-butyl-7H-pyrrolo[2,3-d]pyrimidin-5-yl)carbonyl]pyridin-3-yl}-2-[3-(trifluoromethyl)-1H-pyrazol-1-yl]acetamide]	2.6	73	3.5	3.6	2	14	1.5				
CC(C)(C)n1cc(C(=O)c2cncc(NC(=O)Cn3cc(C(F)(F)F)cn3)c2)c2cncnc21 [Example 8, N-{5-[(7-tert-butyl-7H-pyrrolo[2,3-d]pyrimidin-5-yl)carbonyl]pyridin-3-yl}-2-[4-(trifluoromethyl)-1H-pyrazol-1-yl]acetamide]	2.4		1.9	2	2.3		1.8			15	15
Cc1cc(C(F)(F)F)nn1CC(=O)Nc1cncc(C(=O)c2cn([C@@H](C)CO)c3ncncc23)c1 [Example 10, N-[5-({7-[(1S)-2-Hydroxy-1-methylethyl]-7H-pyrrolo[2,3-d]pyrimidin-5-yl}carbonyl)pyridin-3-yl]-2-[5-methyl-3-(trifluoromethyl)-1H-pyrazol-1-yl]acetamide]	5.7	78	30	18	18	14	< 1				
C[C@@H](CO)n1cc(C(=O)c2cncc(NC(=O)Cc3ccc(Cl)cc3)c2)c2cncnc21 [Example 11, 2-(4-chlorophenyl)-N-[5-({7-[(1S)-2-hydroxy-1-methylethyl]-7H-pyrrolo[2,3-d]pyrimidin-5-yl}carbonyl)pyridin-3-yl]acetamide]	3.3		17	11	6.6		< 1			197	23
C[C@@H](CO)n1cc(C(=O)c2cncc(NC(=O)Cc3ccc(Cl)cn3)c2)c2cncnc21 [Example 14, 2-(5-chloropyridin-2-yl)-N-[5-({7-[(1S)-2-hydroxy-1-methylethyl]-7H-pyrrolo[2,3-d]pyrimidin-5-yl}carbonyl)pyridin-3-yl]acetamide]	13	773	41	15	4.8	21	< 1				

Now from value to molecule:

IC50 [1] [nM]	IC50 [2, 7] [nM]	IC50 [3] [nM]	IC50 [4] [nM]	IC50 [5] [nM]	Papp B→A ([6]; MDCK-MDR1, MDCK-MDR1, B to A) [×10⁻⁶ cm/s]	Papp A→B [6] [×10⁻⁶ cm/s]	MDCK MDR1 Papp AB [6] [×10⁻⁶ cm/s]	MDCK MDR1 Papp BA ([6]; MDCK-MDR1, B to A) [×10⁻⁶ cm/s]	IC50 ([2]; TrkB enzyme potency) [nM]	Papp B→A ([6]; MDCK-MDR1, B to A) [×10⁻⁶ cm/s]	SMILES
3.6	200	23	25	13	11	< 1					CC(CO)n1cc(C(=O)c2cncc(NC(=O)Cc3ccc(Cl)cc3)c2)c2cnc(N)nc21 (single isomer, unassigned) [Example 34, N-(5-{[2-Amino-7-(2-hydroxy-1-methylethyl)-7H-pyrrolo[2,3-d]pyrimidin-5-yl]carbonyl}pyridin-3-yl)-2-(4-chlorophenyl)acetamide]
4.5	303	11	13	13	12	< 1					CC(CO)n1cc(C(=O)c2cncc(NC(=O)Cc3ccc(C(F)(F)F)cc3)c2)c2cnc(N)nc21 (single isomer, unassigned) [Example 36, N-(5-{[2-amino-7-(2-hydroxy-1-methylethyl)-7H-pyrrolo[2,3-d]pyrimidin-5-yl]carbonyl}pyridin-3-yl)-2-[4-(trifluoromethyl)phenyl]acetamide]
3.8	191	44	27	13			<1	9.5			CC(CO)n1cc(C(=O)c2cncc(NC(=O)Cc3ccc(Cl)cc3)c2)c2cnc(N)nc21 (single isomer, unassigned) [Example 42, N-(5-{[2-amino-7-(2-hydroxy-1-methylethyl)-7H-pyrrolo[2,3-d]pyrimidin-5-yl]carbonyl}pyridin-3-yl)-2-(4-chlorophenyl)acetamide]
5.1	136	17	19	11			<1	13			CC(CO)n1cc(C(=O)c2cncc(NC(=O)Cc3ccc(C(F)(F)F)cc3)c2)c2cnc(N)nc21 (single isomer, unassigned) [Example 43, N-(5-{[2-amino-7-(2-hydroxy-1-methylethyl)-7H-pyrrolo[2,3-d]pyrimidin-5-yl]carbonyl}pyridin-3-yl)-2-[4-(trifluoromethyl)phenyl]acetamide]
125		37	27	8.9		< 1			427	10	C[C@H](CO)n1cc(C(=O)c2cncc(NC(=O)Cc3ccc(Cl)cc3)c2)c2cncnc21 [Example 24, 2-(4-chlorophenyl)-N-[5-({7-[(1R)-2-hydroxy-1-methylethyl]-7H-pyrrolo[2,3-d]pyrimidin-5-yl}carbonyl)pyridin-3-yl]acetamide]
2.8	55	3.9	5.4	3.2	17	< 1					CC(C)(CO)n1cc(C(=O)c2cncc(NC(=O)Cc3ccc(C(F)(F)F)cc3)c2)c2cncnc21 [Example 27, N-(5-{[7-(2-hydroxy-1,1-dimethylethyl)-7H-pyrrolo[2,3-d]pyrimidin-5-yl]carbonyl}pyridin-3-yl)-2-[4-(trifluoromethyl)phenyl]acetamide]
9	423	87	59	18	3.4	< 1					CC(C)(CO)n1cc(C(=O)c2cncc(NC(=O)Cn3cc(C(F)(F)F)nn3)c2)c2cncnc21 [Example 32, N-(5-{[7-(2-hydroxy-1,1-dimethylethyl)-7H-pyrrolo[2,3-d]pyrimidin-5-yl]carbonyl}pyridin-3-yl)-2-[4-(trifluoromethyl)-1H-1,2,3-triazol-1-yl]acetamide]
1.7	40	2.9	3.6	2.5	12	< 1					CC(C)(CO)n1cc(C(=O)c2cncc(NC(=O)Cc3ccc(C(F)(F)F)cc3)c2)c2cnc(N)nc21 [Example 48, N-(5-{[2-amino-7-(2-hydroxy-1,1-dimethylethyl)-7H-pyrrolo[2,3-d]pyrimidin-5-yl]carbonyl}pyridin-3-yl)-2-[4-(trifluoromethyl)phenyl]acetamide]
7.8	198	35	7.5	9.9	11	< 1					CC(C)(CO)n1cc(C(=O)c2cncc(NC(=O)Cc3ccc(F)cn3)c2)c2cnc(N)nc21 [Example 51, N-(5-{[2-amino-7-(2-hydroxy-1,1-dimethylethyl)-7H-pyrrolo[2,3-d]pyrimidin-5-yl]carbonyl}pyridin-3-yl)-2-(5-fluoropyridin-2-yl)acetamide]

From US8846698B2, “Pyrrolo[2,3-d]pyrimidine tropomysin-related kinase inhibitors” (Pfizer Limited, priority 2011, dated 2014)
